Converted amounts (≈) assume the structure as drawn.
Experiments:
[1] = target: T1, Serine-protein kinase ATM (Homo sapiens, UniProt Q13315); test: Inhibition of ATM (unknown origin) by FRET assay
[2] = target: Phosphatidylinositol 4,5-bisphosphate 3-kinase catalytic subunit gamma isoform (Homo sapiens) (UniProt P48736); test: Inhibition of PI3Kgamma (unknown origin) assessed as residual activity at 1 uM relative to control
[3] = target: DNA-dependent protein kinase catalytic subunit (Homo sapiens) (UniProt P78527); test: Inhibition of DNA-PK (unknown origin) assessed as residual activity at 1 uM relative to control
[4] = target: Leucine-rich repeat serine/threonine-protein kinase 2 (Homo sapiens) (UniProt Q5S007); test: Inhibition of LRRK2 (unknown origin) assessed as residual activity at 1 uM relative to control
[5] = target: T1, Serine-protein kinase ATM; test: Inhibition of ATM in human A549 cells assessed as reduction in etoposide-stimulated KAP1 phosphorylation by In-Cell-Western assay; type: cell-based
[6] = target: T2, Phosphatidylinositol 4,5-bisphosphate 3-kinase catalytic subunit delta isoform (Homo sapiens) (UniProt O00329); test: Inhibition of PI3Kdelta (unknown origin) assessed as residual activity at 1 uM relative to control
T2 sequence (whole entry): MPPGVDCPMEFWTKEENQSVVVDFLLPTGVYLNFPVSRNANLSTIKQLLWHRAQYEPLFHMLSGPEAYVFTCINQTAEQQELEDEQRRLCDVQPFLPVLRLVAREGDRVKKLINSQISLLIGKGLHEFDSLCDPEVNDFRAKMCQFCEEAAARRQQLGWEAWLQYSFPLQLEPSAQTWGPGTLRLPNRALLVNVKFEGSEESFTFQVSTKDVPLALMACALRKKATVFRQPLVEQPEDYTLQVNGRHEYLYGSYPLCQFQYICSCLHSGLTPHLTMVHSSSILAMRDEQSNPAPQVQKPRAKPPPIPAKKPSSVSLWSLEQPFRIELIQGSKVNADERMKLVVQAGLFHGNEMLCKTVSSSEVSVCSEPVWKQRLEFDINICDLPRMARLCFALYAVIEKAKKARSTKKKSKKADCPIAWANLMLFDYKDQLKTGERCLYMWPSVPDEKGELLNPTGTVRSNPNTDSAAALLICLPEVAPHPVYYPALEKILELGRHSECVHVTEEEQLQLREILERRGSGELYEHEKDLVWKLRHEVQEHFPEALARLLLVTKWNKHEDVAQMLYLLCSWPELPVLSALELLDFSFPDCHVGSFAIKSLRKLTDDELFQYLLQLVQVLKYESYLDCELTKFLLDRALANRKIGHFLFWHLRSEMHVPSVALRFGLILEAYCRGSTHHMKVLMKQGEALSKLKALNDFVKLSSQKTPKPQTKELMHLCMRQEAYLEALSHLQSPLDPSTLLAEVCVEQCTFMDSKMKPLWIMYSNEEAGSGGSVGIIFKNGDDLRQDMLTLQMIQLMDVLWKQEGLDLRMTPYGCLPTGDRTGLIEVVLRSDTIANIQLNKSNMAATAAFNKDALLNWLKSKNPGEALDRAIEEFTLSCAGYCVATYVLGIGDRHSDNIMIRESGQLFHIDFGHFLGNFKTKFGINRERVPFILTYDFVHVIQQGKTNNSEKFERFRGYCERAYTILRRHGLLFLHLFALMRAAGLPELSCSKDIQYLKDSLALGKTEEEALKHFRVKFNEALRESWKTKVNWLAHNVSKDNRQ

[7] = target: Serine/threonine-protein kinase ATR (Homo sapiens) (UniProt Q13535); test: Inhibition of ATR (unknown origin) assessed as residual activity at 1 uM relative to control
[8] = target: Phosphatidylinositol 4,5-bisphosphate 3-kinase catalytic subunit alpha isoform (Homo sapiens) (UniProt P42336); test: Inhibition of PI3Kalpha (unknown origin) assessed as residual activity at 1 uM relative to control
Chain of Phosphatidylinositol 4,5-bisphosphate 3-kinase catalytic subunit alpha isoform (Homo sapiens) (P42336 whole entry, canonical isoform): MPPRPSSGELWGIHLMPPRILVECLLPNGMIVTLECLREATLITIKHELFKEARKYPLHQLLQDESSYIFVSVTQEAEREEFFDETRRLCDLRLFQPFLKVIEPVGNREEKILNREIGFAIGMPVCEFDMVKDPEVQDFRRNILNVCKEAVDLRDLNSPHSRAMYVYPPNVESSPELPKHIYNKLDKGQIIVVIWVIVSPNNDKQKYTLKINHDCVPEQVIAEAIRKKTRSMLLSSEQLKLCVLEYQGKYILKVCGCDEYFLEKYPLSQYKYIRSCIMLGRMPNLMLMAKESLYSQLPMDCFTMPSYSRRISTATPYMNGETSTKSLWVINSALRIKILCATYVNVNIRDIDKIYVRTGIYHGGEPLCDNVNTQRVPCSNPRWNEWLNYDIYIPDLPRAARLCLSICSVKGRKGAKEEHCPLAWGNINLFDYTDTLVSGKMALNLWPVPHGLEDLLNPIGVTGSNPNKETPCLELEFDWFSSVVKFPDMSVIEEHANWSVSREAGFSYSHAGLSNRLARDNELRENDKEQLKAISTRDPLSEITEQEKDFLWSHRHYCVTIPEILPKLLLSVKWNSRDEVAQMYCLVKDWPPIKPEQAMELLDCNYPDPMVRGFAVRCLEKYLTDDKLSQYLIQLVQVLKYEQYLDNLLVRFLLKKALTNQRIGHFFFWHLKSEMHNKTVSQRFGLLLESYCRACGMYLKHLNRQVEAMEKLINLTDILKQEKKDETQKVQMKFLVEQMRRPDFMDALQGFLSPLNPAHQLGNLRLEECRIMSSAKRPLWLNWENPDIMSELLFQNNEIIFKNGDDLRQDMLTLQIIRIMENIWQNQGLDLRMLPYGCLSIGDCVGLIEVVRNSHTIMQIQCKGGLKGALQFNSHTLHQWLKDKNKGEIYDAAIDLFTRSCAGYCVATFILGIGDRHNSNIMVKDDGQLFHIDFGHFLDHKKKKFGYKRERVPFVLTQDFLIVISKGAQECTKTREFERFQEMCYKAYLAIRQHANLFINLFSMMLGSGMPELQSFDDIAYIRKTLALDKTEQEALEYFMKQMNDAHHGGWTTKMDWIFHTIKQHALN

[9] = target: Serine/threonine-protein kinase mTOR (Homo sapiens) (UniProt P42345); test: Inhibition of mTOR (unknown origin) assessed as residual activity at 1 uM relative to control
[10] = Metabolic stability in mouse liver microsomes assessed as parent compound remaining after 120 mins
[11] = target: Phosphatidylinositol 4,5-bisphosphate 3-kinase catalytic subunit beta isoform (Homo sapiens) (UniProt P42338); test: Inhibition of PI3Kbeta (unknown origin) assessed as residual activity at 1 uM relative to control
Homo sapiens = organism: Homo sapiens; test: Selectivity ratio for inhibition of ATR (unknown origin) to inhibition of ATM (unknown origin)
[12] = Thermodynamic solubility of compound in PBS at pH 7.4; type: physicochemical; details: read-out: Therm_solubility

T1 sequence (Q13315 whole entry, canonical isoform): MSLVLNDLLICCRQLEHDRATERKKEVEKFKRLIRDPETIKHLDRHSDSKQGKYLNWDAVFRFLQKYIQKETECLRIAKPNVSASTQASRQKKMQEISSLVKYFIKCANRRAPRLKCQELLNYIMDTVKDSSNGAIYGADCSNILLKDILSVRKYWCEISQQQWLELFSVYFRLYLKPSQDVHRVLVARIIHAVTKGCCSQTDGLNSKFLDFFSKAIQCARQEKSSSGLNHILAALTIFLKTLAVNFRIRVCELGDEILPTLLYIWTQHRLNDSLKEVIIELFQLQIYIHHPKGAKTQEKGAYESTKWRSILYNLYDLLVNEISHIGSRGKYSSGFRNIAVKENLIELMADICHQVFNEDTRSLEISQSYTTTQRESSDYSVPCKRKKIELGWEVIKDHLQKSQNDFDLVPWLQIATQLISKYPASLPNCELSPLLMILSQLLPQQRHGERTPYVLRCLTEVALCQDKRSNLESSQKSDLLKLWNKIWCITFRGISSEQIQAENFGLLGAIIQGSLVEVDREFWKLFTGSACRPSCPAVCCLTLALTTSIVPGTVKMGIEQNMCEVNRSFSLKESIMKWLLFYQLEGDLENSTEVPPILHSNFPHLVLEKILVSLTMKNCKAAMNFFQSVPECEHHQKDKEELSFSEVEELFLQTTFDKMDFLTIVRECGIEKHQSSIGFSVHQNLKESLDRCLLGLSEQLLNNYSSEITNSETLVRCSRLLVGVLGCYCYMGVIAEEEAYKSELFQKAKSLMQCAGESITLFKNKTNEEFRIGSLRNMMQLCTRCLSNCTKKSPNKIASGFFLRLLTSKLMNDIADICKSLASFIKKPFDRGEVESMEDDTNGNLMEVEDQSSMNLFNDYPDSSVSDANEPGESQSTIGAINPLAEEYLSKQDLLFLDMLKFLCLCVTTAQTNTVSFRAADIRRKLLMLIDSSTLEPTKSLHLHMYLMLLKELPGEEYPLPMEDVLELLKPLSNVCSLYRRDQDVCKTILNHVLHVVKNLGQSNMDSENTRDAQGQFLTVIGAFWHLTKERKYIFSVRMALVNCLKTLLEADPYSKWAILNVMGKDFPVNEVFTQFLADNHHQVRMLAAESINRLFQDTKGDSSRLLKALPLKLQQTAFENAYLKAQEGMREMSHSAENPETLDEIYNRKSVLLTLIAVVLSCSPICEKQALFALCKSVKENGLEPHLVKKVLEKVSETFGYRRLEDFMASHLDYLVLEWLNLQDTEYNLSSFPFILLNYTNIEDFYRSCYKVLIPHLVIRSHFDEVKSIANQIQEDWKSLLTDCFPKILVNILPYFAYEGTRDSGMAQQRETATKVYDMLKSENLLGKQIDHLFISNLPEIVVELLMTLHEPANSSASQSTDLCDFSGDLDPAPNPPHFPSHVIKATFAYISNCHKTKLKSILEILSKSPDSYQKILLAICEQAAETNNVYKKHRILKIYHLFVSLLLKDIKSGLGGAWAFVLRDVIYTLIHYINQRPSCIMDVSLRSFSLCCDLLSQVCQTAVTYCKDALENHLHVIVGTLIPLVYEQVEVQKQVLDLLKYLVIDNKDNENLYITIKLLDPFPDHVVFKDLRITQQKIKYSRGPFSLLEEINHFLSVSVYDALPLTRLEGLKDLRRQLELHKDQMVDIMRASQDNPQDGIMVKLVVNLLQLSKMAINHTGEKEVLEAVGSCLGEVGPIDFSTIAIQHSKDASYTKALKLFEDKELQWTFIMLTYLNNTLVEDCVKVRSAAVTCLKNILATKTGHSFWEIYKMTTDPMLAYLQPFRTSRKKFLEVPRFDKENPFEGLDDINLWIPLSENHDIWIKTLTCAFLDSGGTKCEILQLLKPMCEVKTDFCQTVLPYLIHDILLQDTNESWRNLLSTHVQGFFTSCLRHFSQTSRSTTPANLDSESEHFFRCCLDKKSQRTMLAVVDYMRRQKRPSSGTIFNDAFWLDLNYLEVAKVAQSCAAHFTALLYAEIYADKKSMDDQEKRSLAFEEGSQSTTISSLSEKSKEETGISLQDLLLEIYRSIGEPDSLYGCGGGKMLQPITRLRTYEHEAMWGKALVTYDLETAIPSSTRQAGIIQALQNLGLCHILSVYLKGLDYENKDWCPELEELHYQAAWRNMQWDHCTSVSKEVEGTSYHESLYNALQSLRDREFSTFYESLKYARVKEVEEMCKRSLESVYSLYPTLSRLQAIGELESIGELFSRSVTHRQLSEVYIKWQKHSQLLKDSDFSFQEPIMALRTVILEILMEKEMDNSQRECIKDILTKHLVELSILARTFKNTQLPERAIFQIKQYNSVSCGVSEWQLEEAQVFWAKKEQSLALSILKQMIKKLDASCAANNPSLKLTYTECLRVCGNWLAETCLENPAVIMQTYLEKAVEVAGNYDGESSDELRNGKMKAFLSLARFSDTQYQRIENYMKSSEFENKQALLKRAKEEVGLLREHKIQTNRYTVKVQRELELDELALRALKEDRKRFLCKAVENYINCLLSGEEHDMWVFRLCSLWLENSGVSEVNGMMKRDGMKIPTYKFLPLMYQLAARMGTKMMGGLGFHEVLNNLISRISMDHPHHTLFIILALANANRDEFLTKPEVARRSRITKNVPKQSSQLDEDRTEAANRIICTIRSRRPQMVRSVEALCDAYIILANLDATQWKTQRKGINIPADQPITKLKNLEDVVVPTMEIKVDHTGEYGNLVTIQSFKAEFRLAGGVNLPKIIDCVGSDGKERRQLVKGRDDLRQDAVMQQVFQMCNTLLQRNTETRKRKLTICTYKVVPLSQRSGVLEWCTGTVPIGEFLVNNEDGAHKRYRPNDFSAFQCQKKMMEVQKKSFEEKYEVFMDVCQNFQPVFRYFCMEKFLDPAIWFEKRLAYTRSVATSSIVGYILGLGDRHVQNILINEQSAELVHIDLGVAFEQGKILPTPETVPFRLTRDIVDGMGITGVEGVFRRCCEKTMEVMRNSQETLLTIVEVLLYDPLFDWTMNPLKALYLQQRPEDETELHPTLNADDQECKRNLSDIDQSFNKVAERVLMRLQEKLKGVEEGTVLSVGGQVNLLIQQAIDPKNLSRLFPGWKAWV

Q: Which IC50 [1] does the source give for `COCCn1c(=O)n(C)c2cnc3ccc(-c4ccc(NC(=O)N5CCC(N)CC5)cc4)cc3c21` here?
A: 16 nM

Q: For `COCCn1c(=O)n(C)c2cnc3ccc(-c4ccc(NC(=O)NC5CN(C)C5)cc4)cc3c21`, which IC50 [1] is on record?
A: < 1 nM

Q: Which IC50 [1] does the source give for `COCCn1c(=O)n(C)c2cnc3ccc(-c4ccc(NC(=O)N5CCN(C)CC5)c(F)c4)cc3c21` here?
A: 394 nM

Q: With `COCCn1c(=O)n(C)c2cnc3ccc(-c4ccc(NC(=O)NC5CCN(C(=O)OC(C)(C)C)CC5)cc4)cc3c21` as the compound, how does the IC50 [1] read?
A: < 1 nM

Q: Which IC50 [1] does the source give for `COCCn1c(=O)n(C)c2cnc3ccc(-c4ccc(NC(=O)NC(C)CN(C)C)cc4)cc3c21` (stereo not given) here?
A: < 1 nM

Q: What does the source list for `COCCn1c(=O)n(C)c2cnc3ccc(-c4ccc(NC(=O)NCCN(C)C)c(F)c4)cc3c21`?
A: Activity [2]: 80%; Activity [3]: 8%; Activity [4]: 92%; IC50 [5]: 0.71 nM; Activity [6]: 35%; Activity [7]: 104%; IC50 [1]: < 1 nM; Activity [8]: 28%; Activity [9]: 4%; remaining at 2 h [10]: 78%; Activity [11]: 87%; Selectivity ratio (Homo sapiens): > 1000

Q: Which IC50 [1] does the source give for `COCCn1c(=O)n(C)c2cnc3ccc(-c4ccc(NC(=O)NCCN(C)C)c(F)c4Cl)cc3c21` here?
A: 32 nM

Q: With `COCCn1c(=O)n(C)c2cnc3ccc(-c4ccc(NC(=O)N5CCC(NC(=O)OC(C)(C)C)CC5)cc4)cc3c21` as the compound, how does the IC50 [1] read?
A: 2 nM

Q: For `COCCn1c(=O)n(C)c2cnc3ccc(-c4ccc(NC(=O)N5CCC(N(C)C)CC5)cc4)cc3c21`, which IC50 [1] is on record?
A: 945 nM

Q: For `CN(C)CCCOc1ccc(-c2ccc3ncc4c(c3c2)n(C2CCOCC2)c(=O)n4C)cn1`, which solubility thermodynamic [12] is on record?
A: 2970 µM (≈ 1370 µg/mL)

Q: For `COCCn1c(=O)n(C)c2cnc3ccc(-c4ccc(NC(=O)N5C[C@@H]6C[C@H]5CN6C)cc4)cc3c21`, which IC50 [1] is on record?
A: 25 nM

Q: For `COCCn1c(=O)n(C)c2cnc3ccc(-c4ccc(NC(=O)N5CCN(C)CC5)c(F)c4Cl)cc3c21`, which IC50 [1] is on record?
A: 885 nM

Q: For `CN(C)CCNC(=O)Nc1ccc(-c2ccc3ncc4c(c3c2)n(C2CCOCC2)c(=O)n4C)cc1`, which solubility thermodynamic [12] is on record?
A: 39 µM (≈ 19.1 µg/mL)

Q: And the IC50 [1]?
A: < 1 nM

Q: With `COCCn1c(=O)n(C)c2cnc3ccc(-c4ccc(NC(=O)NCCN5CC(F)C5)cc4)cc3c21` as the compound, how does the Activity [2] read?
A: 34%

Q: And the Activity [3]?
A: -4%

Q: What about the Activity [4] of the same compound?
A: 87%

Q: What about the IC50 [5] of the same compound?
A: 0.32 nM

Q: And the Activity [6]?
A: 23%

Q: What about the Activity [7] of the same compound?
A: 109%

Q: And the IC50 [1]?
A: < 1 nM

Q: And the Activity [8]?
A: -11%

Q: What about the Activity [9] of the same compound?
A: -1%

Q: And the remaining at 2 h [10]?
A: 50%

Q: And the Activity [11]?
A: 42%

Q: What about the Selectivity ratio (Homo sapiens) of the same compound?
A: > 1000

Q: For `COCCn1c(=O)n(C)c2cnc3ccc(-c4ccc(NC(=O)N5CCN(C)CC5)cc4F)cc3c21`, which IC50 [1] is on record?
A: 101 nM

Q: Which IC50 [1] does the source give for `COCCn1c(=O)n(C)c2cnc3ccc(-c4ccc(NC(=O)NC5CCNCC5)cc4)cc3c21` here?
A: < 1 nM

Q: For `CCN1CCN(C(=O)Nc2ccc(-c3ccc4ncc5c(c4c3)n(CCOC)c(=O)n5C)cc2)CC1`, which IC50 [1] is on record?
A: 159 nM

Q: With `COCCn1c(=O)n(C)c2cnc3ccc(-c4ccc(NC(=O)NCCN5CC(F)(F)C5)cc4)cc3c21` as the compound, how does the IC50 [5] read?
A: 3.31 nM

Q: What about the IC50 [1] of the same compound?
A: < 1 nM

Q: Which IC50 [1] does the source give for `COCCn1c(=O)n(C)c2cnc3ccc(-c4ccc(NC(=O)NC5CCCN(C)C5)cc4)cc3c21` (stereo not given) here?
A: < 1 nM

Q: For `COCCn1c(=O)n(C)c2cnc3ccc(-c4ccc(NC(=O)N5CCN(C)CC5)c(C)c4F)cc3c21`, which IC50 [1] is on record?
A: 1580 nM

Q: With `COCCn1c(=O)n(C)c2cnc3ccc(-c4ccc(NC(=O)NCCN(C)C)cc4)cc3c21` as the compound, how does the solubility thermodynamic [12] read?
A: 1570 µM (≈ 726 µg/mL)

Q: What about the IC50 [5] of the same compound?
A: 1.7 nM

Q: And the IC50 [1]?
A: < 1 nM

Q: For `COCCn1c(=O)n(C)c2cnc3ccc(-c4ccc(NC(=O)N5CCN(C)CC5)c(F)c4F)cc3c21`, which IC50 [1] is on record?
A: 212 nM

Q: For `COCCn1c(=O)n(C)c2cnc3ccc(-c4ccc(NC(=O)N5CCN(C(C)C)CC5)cc4)cc3c21`, which IC50 [1] is on record?
A: 158 nM

Q: For `COCCn1c(=O)n(C)c2cnc3ccc(-c4ccc(NC(=O)NCCN(C)C)c(C)c4F)cc3c21`, which IC50 [1] is on record?
A: 37 nM

Q: For `COCCn1c(=O)n(C)c2cnc3ccc(-c4ccc(NC(=O)NCCN(C)C)cc4F)cc3c21`, which IC50 [5] is on record?
A: 0.65 nM

Q: And the IC50 [1]?
A: < 1 nM

Q: For `COCCn1c(=O)n(C)c2cnc3ccc(-c4ccc(NC(=O)N(C)CCN(C)C)cc4)cc3c21`, which IC50 [5] is on record?
A: 1.33 nM

Q: And the IC50 [1]?
A: < 1 nM

Q: Which IC50 [5] does the source give for `COCCn1c(=O)n(C)c2cnc3ccc(-c4ccc(NC(=O)NCCN5CCC5)cc4)cc3c21` here?
A: 0.92 nM

Q: What about the IC50 [1] of the same compound?
A: < 1 nM

Q: Which solubility thermodynamic [12] does the source give for `CN(C)CCNC(=O)Nc1ccc(-c2ccc3ncc4c(c3c2)n(C2CCOCC2)c(=O)n4C)cn1` here?
A: 36 µM (≈ 17.6 µg/mL)

Q: And the IC50 [1]?
A: < 1 nM

Q: With `COCCn1c(=O)n(C)c2cnc3ccc(-c4ccc(NC(=O)N5CCN(C)CC5)cc4)cc3c21` as the compound, how does the IC50 [1] read?
A: 78 nM

Q: Which IC50 [1] does the source give for `COCCn1c(=O)n(C)c2cnc3ccc(-c4ccc(NC(=O)NC5CCN(C)C5)cc4)cc3c21` (stereo not given) here?
A: < 1 nM

Source: ChEMBL document CHEMBL5154812, “Development of novel urea-based ATM kinase inhibitors with subnanomolar cellular potency and high kinome selectivity” (Eur J Med Chem, 2022)
